From patent US20230104311A1, “NOVEL 6-SUBSTITUTED 7-DEAZAPURINES AND CORRESPONDING NUCLEOSIDES AS MEDICAMENTS” (KATHOLIEKE UNIVERSITEIT LEUVEN, priority 2020, published 2023)
Where “and” joins values, the source holds several entries; their conditions need not be identical. Equal values may be shown once. Entries after “also recorded” stand apart in the source; their conditions may differ. Read-outs that look alike come from different tables or passages of the source.

How the values were obtained:
HCV [1] = conditions: read-out: EC50 HCV in cell cultures; cited from earlier work
[2] = Cytotoxicity (CC50) determined in parallel in uninfected cells (β-actin toxicity); conditions: human
human norovirus (HuNoV) = assay: Inhibition of in vitro replication of genogroup 1 NoV in HG23 NoV replicon cells (qRT-PCR of intracellular RNA); type: cell-based; conditions: for inhibitory activity against human norovirus (in words): HuNoV assay
uninfected cells [3] = assay: Cytotoxicity (CC50) determined in parallel in uninfected cells (β-actin toxicity); conditions: HuNoV assay
poliovirus (PV) = conditions: read-out: IC50 poliovirus (PV) replication; cited from earlier work
dengue virus (DENV2) = conditions: read-out: IC50 dengue virus (DENV2) replication; cited from earlier work
uninfected cells [4] = tested on: uninfected cells
HCV [5] = conditions: anti-HCV in vitro; cited from earlier work
in vitro = conditions: human
[6] = tested on: MERS Coronavirus strain EMC; assay: microbe, parasite or virus in culture; type: cell-based
[7] = tested on: Influenza A virus strain California/07/2009; assay: Inhibition of in vitro replication of Influenza A virus; type: cell-based; conditions: for EC50: Influenza A virus strain California/07/2009
norovirus = conditions: read-out: EC50 norovirus replication; cited from earlier work
HuNoV = conditions: human B cell BJAB cell line; read-out: EC50 HuNoV replication; cited from earlier work
murine norovirus (MNV) = conditions: read-out: EC50 murine norovirus (MNV) polymerase; cited from earlier work
[8] = Norovirus, HG23, HuNoV, HG23 NoV replicon cells, read-out: EC50 (effective concentration to inhibit the replication of the virus by 50%)
[9] = Norovirus, HuNoV, HG23 NoV replicon cells, read-out: EC90 (effective concentration to inhibit the replication of the virus by 90%)
[10] = Norovirus, HG23, read-out: EC50 (effective concentration to inhibit the replication of the virus by 50%), HuNoV, HG23 NoV replicon cells
[11] = HuNoV, HG23 NoV replicon cells, read-out: EC50 (effective concentration to inhibit the replication of the virus by 50%)
[12] = HuNoV, HG23 NoV replicon cells, read-out: EC90 (effective concentration to inhibit the replication of the virus by 90%)

C[C@@]1(O)[C@H](O)[C@@H](CO)O[C@H]1c1ccc2c(N)ncnn12 [2′-C-methyl-4-aza-7,9-dideazaadenosine]
EC50 (HCV [1]): 1.98 µM

CCCCCCc1ncnc2c1ccn2[C@@H]1O[C@H](CO)[C@@H](O)[C@H]1O [Compound 11g, 6-Hexyl-9-β-D-ribofuranosyl-7-deazapurine]
CC50 ([2]; uninfected cells): 62.3 µM
EC50 (human norovirus (HuNoV); [8]): 0.13 µM
EC90 (human norovirus (HuNoV); [9]): 57.6 µM

Cc1ccc(-c2ncnc3c2ccn3[C@@H]2O[C@H](CO)[C@@H](O)[C@H]2O)cc1 [Compound 11a, 6-(4-Methylphenyl)-9-β-D-ribofuranosyl-7-deazapurine]
CC50 ([2]; uninfected cells): > 100 µM
EC90 (human norovirus (HuNoV); [9]): > 100 µM

CCCc1ncnc2c1ccn2[C@@H]1O[C@H](CO)[C@@H](O)[C@H]1O [Compound 11e, 6-Propyl-9-β-D-ribofuranosyl-7-deazapurine]
CC50 ([2]; uninfected cells): > 100 µM
cytotoxicity (in words) (uninfected cells [3]): did not display significant cytotoxicity; also recorded: without significant cytotoxicity
inhibitory activity against human norovirus (in words) (human norovirus (HuNoV)): potent activity
EC50 (human norovirus (HuNoV); [10]): 0.016 µM
EC90 (human norovirus (HuNoV); [9]): 19 µM

CCc1ccc(-c2ncnc3c2ccn3[C@@H]2O[C@H](CO)[C@@H](O)[C@H]2O)cc1 [Compound 11q, 6-(4-Ethylphenyl)-9-β-D-ribofuranosyl-7-deazapurine]
CC50 ([2]; uninfected cells): > 100 µM
EC50 (human norovirus (HuNoV); [8]): 57.8 µM
EC90 (human norovirus (HuNoV); [9]): > 100 µM

Cc1ncnc2c1ccn2[C@@H]1O[C@H](CO)[C@@H](O)[C@H]1O [Compound 3]
IC50 (poliovirus (PV)): 0.011 µM
IC50 (dengue virus (DENV2)): 0.039 µM

CC(C)Cc1ncnc2c1ccn2[C@@H]1O[C@H](CO)[C@@H](O)[C@H]1O [Compound 11i, 6-Isobutyl-9-β-D-ribofuranosyl-7-deazapurine]
CC50 ([2]; uninfected cells): > 100 µM
EC50 (human norovirus (HuNoV); [8]): 0.002 µM
EC90 (human norovirus (HuNoV); [9]): > 100 µM

OC[C@H]1O[C@@H](n2ccc3c(-c4ccccc4)ncnc32)[C@H](O)[C@@H]1O [Compound 11o, 6-Phenyl-9-β-D-ribofuranosyl-7-deazapurine]
CC50 ([2]; uninfected cells): > 100 µM
EC50 (human norovirus (HuNoV); [8]): 0.211 µM
EC90 (human norovirus (HuNoV); [9]): 61.9 µM

CC(C)c1ccc(-c2ncnc3c2ccn3[C@@H]2O[C@H](CO)[C@@H](O)[C@H]2O)cc1 [Compound 11m, 6-(4-isoproylphenyl)-9-β-D-ribofuranosyl-7-deazapurine]
CC50 (uninfected cells [4]): > 100 µM
EC50 (human norovirus (HuNoV); [11]): 0.002 µM and < 0.001 µM
EC90 (human norovirus (HuNoV); [12]): 55 µM

C[C@@]1(O)[C@H](O)[C@@H](CO)O[C@H]1c1cc(C(N)=O)c2c(N)ncnn12 [7-carboamido analogue 2]
improvement in potency relative to the parent compound 1 (HCV [5]): 40 fold

OC[C@H]1O[C@@H](n2ccc3c(C4CCCCC4)ncnc32)[C@H](O)[C@@H]1O [Compound 11l, 6-Cyclohexyl-9-β-D-ribofuranosyl-7-deazapurine]
CC50 ([2]; uninfected cells): 42.4 µM
cytotoxicity (in words) (uninfected cells [3]): did not display significant cytotoxicity; also recorded: without significant cytotoxicity
inhibitory activity against human norovirus (in words) (human norovirus (HuNoV)): potent activity
EC50 (human norovirus (HuNoV); [11]): 0.18 µM
EC50 (human norovirus (HuNoV); [10]): 0.18 µM
EC90 (human norovirus (HuNoV); [9]): 7.24 µM

OC[C@H]1O[C@@H](n2ccc3c(C4CCCC4)ncnc32)[C@H](O)[C@@H]1O [Compound 11k, 6-Cyclopentyl-9-β-D-ribofuranosyl-7-deazapurine]
CC50 ([2]; uninfected cells): > 100 µM
EC50 (human norovirus (HuNoV); [8]): > 100 µM
EC90 (human norovirus (HuNoV); [9]): > 100 µM

CCCCCc1ncnc2c1ccn2[C@@H]1O[C@H](CO)[C@@H](O)[C@H]1O [Compound 11f, 6-Pentyl-9-β-D-ribofuranosyl-7-deazapurine]
CC50 ([2]; uninfected cells): > 100 µM
EC50 (human norovirus (HuNoV); [10]): 0.084 µM
EC90 (human norovirus (HuNoV); Norovirus, HG23, read-out: EC90 (effective concentration to inhibit the replication of the virus by 90%)): > 100 µM

CCc1ncnc2c1ccn2[C@@H]1O[C@H](CO)[C@@H](O)[C@H]1O [Compound 11d, 6-Ethyl-9-β-D-ribofuranosyl-7-deazapurine]
CC50 (in vitro): > 100 µM
CC50 [2]: 10.2 µM
cytotoxicity (in words) (uninfected cells [3]): did not display significant cytotoxicity
inhibitory activity against MERS Coronavirus (in words) [6]: moderate inhibitory activity
EC50 ([6]; Middle East respiratory syndrome-related coronavirus): 9.2 µM
EC50 (human norovirus (HuNoV); [10]): 0.023 µM
EC90 (human norovirus (HuNoV); [9]): 0.495 µM
inhibitory activity against Influenza A virus (in words) [7]: moderate inhibitory activity
EC50 [7]: 0.42 µM

NC(=O)c1ncn([C@@H]2O[C@H](CO)[C@@H](O)[C@H]2O)n1 [Ribavirin, reference compound]
CC50 (in vitro): > 1000 µM
EC50 (norovirus): 43 µM
EC50 [7]: 3.6 µM

OC[C@H]1O[C@@H](n2ccc3c(C4CC4)ncnc32)[C@H](O)[C@@H]1O [Compound 11j, 6-Cycloproyl-9-β-D-ribofuranosyl-7-deazapurine]
CC50 (uninfected cells [4]): > 100 µM
EC50 (human norovirus (HuNoV); [11]): 0.205 µM
EC90 (human norovirus (HuNoV); [12]): > 100 µM

CN(C)c1ccc(-c2ncnc3c2ccn3[C@@H]2O[C@H](CO)[C@@H](O)[C@H]2O)cc1 [Compound 11p, 6-(4-(Dimethylamino)phenyl)-9-β-D-ribofuranosyl-7-deazapurine]
CC50 ([2]; uninfected cells): > 100 µM
EC50 (human norovirus (HuNoV); [8]): 92.4 µM
EC90 (human norovirus (HuNoV); [9]): > 100 µM

COc1ccc(-c2ncnc3c2ccn3[C@@H]2O[C@H](CO)[C@@H](O)[C@H]2O)cc1 [Compound 11n, 6-(4-Methoxylphenyl)-9-β-D-ribofuranosyl-7-desazapurine]
CC50 ([2]; uninfected cells): > 100 µM
EC50 (human norovirus (HuNoV); [8]): 0.094 µM
EC90 (human norovirus (HuNoV); [9]): > 100 µM

C[C@@]1(O)[C@H](O)[C@@H](CO)O[C@H]1n1ccc(N)nc1=O [2’Cmethyl Cytidine, 2′-C-Methyl-cytidine, reference compound]
EC50 (HuNoV): 0.3 µM
CC50 ([2]; uninfected cells): > 25 µM
EC50 (murine norovirus (MNV)): 2 µM
EC50 (human norovirus (HuNoV); [8]): 2.63 µM
EC90 (human norovirus (HuNoV); [9]): 13.8 µM

CC(C)c1ncnc2c1ccn2[C@@H]1O[C@H](CO)[C@@H](O)[C@H]1O [Compound 11c, 6-Isopropyl-9-β-D-ribofuranosyl-7-deazapurine]
CC50 ([2]; uninfected cells): > 100 µM
cytotoxicity (in words) (uninfected cells [3]): did not display significant cytotoxicity; also recorded: without significant cytotoxicity
inhibitory activity against human norovirus (in words) (human norovirus (HuNoV)): potent activity
EC50 (human norovirus (HuNoV); [10]): 0.024 µM
EC90 (human norovirus (HuNoV); [9]): 2.69 µM

Cc1ncnc2c1ccn2[C@@H]1O[C@H](CO)[C@@H](O)[C@H]1O [Compound 11b, 6-Methyl-9-β-D-ribofuranosyl-7-deazapurine]
CC50 ([2]; uninfected cells): 0.53 µM
inhibitory activity against human norovirus (in words) (human norovirus (HuNoV)): good activity
EC50 (human norovirus (HuNoV); [10]): 0.012 µM
EC90 (human norovirus (HuNoV); [9]): 0.068 µM
